Results: US20050032111A1, “Cadherin-11 as an indicator of viable pregnancy” (priority 1997, published 2005)
Values joined by “and” are separate entries in the source; they are usually repeats but may differ in a detail not shown here. Equal values may be shown once. “Also recorded” adds a separate entry of the source. Where a name gives a salt, the structure may show the parent alone.

Assays:
cad-11 mRNA = assay: Northern blot analysis of cad-11 mRNA in cultured endometrial stromal cells; type: cell-based, human; conditions: for stromal cad-11 mRNA levels over time: Example 4C, P4 1 μM, E2 30 nM, DHT 0.1 μM, 0-96 h, P4 effect continued to increase until 96 h; for cad-11 mRNA levels: Example 4B, 24 h culture, P4 0.1-1 μM, E2 30 nm
Description: (§1) Endometrial stroma cells were isolated from secretory endometrium as described above. The stroma cells were grown to confluence, washed with PBS, and cultured in DMEM containing charcoal stripped FCS for a further 24 h. The culture medium was removed, and after the cells had been washed twice with PBS, replaced with fresh DMEM containing charcoal stripped FCS. The cells were harvested for either Northern (see Example 5) or Western blot analysis (see Example 6) after 24 h of culture in the presence or absence of steroids in the culture medium P4 (0.1-1 μM), E2 (30 nm), or vehicle (0.1% ethanol).
(§2) Endometrial stromal cells were separated from the glandular epithelium by enzymatic digestion and mechanical dissociation as described above. The endometrial stromal cells were washed once in phenol red-free Dulbecco'e Modified Eagle's medium (DMEM) containing 10% charcoal-stripped fetal bovine serum (FBS) before being resuspended and plated in DMEM containing 25 mM glucose, […] L-glutamine, antibiotics (100 U/ml penicillin, 100 μg/ml streptomycin and 2.5 μg/ml fungizone), and supplemented with 30% charcoal-stripped FBS. The culture medium was replaced 30 min after plating in order to reduce epithelial cell contamination. The purity of the cell cultures was determined by immunocytochemical staining for vimentin, cytokeratin, muscle actin, and factor VIII.
(§3) The stromal cells (passage 2) were grown to confluence, washed with PBS, and cultured in phenol, red-free DMEM supplemented with 10% charcoal-stripped FBS is and containing either progesterone (P4 1 μM), 17β-estradiol (E2, 30 nM), the non-aromatisable androgen dihydrotestosterone (DHT, 0.1 μM) or vehicle (0.1% ethanol). The cells were cultured in the presence or absence of the steroids for 0, 6, 12, 24, 48, 72 or 96 h before being harvested for Northern or Western blot analysis as described in Examples 5 and 6 using the probe described in Example 4A.
To standardise the amounts of total RNA, the blots were also probed with a radiolabelled synthetic oligonucleotide specific for 18S rRNA. Radioautograms were scanned using an LKB laser densitometer. The absorbance values obtained for the cad-11 transcripts were normalised relative to the 18S rDNA absorbance value. Statistical differences between time points and treatments were assessed by the analysis of variance (ANOVA). Differences were considered to be significant for p <0.05.
(§4) To determine whether a combination of steroids was required for maximal cad-11 expression in endometrial stromal cells, the cells (prepared as described above) were cultured in the presence of P4 (1 μM) plus E2 (30 nM), or P4 (1 μM) plus DHT (0.1 μM) for 0, 6, 12, 24, 48, 72 or 96 h before being harvested for Northern or Western blot analysis as described above.
(§5) To determine whether the ability of E2 to potentiate the effects of P4 on stromal cad-11 expression was dose-dependent, the cells were cultured in the presence of vehicle (0.1% ethanol), E2 (30 nM), P4 (1 μM) or P4 (1 μM) plus varying doses of E2 ([…]) for 96 h. 30 nM is approximately equivalent to physiological levels. The cells were then harvested for Northern and Western blot analysis using the procedures described above.
RNA Extraction using an RNAID™ kit (BIO 101, Inc.): • 1. 500 μl cell solution+500 μl of 2M sodium acetate (pH 4.0). • 2. Vortex. • 3. Add 525 μl of chloroform/isoamyl alcohol. • 4. Vortex. • 5. Incubate on ice for 15 minutes. • 6. Spin at 4° C./10,000×g for 20 minutes. • 7. Transfer top phase (RNA rich portion) to a new vial, taking care not to touch the interface and bottom organic solvent part. • 8. Add ½ volume of chloroform/isoamyl alcohol. • 9. Vortex. • 10. Spin 2 min at 4° C./10,000×g. • 11. Transfer top phase to a new tube. • 12. Add 20 μl of RNA Matrix. • 13. Vortex 30 sec. • […].

cad-11 protein = assay: Western blot analysis of cad-11 protein in cultured endometrial stromal cells; type: cell-based, human; conditions: for cad-11 protein expression levels over time: Example 4C, P4 1 μM, E2 30 nM, DHT 0.1 μM, 0-96 h, P4 effect continued to increase until 86 h [sic]
Description: as §1, §2, §3, §4, §5
Cell cultures were rinsed three times with PBS and drained. The cells were incubated in 100 μl of cell lysis buffer (Tris HCL, pH 7.5 containing 0.5 NP-40, 0.5 mM CaCl2, and 1.0 mM PMSF) at 4° C. for 30 min on a rocking platform. Cell lysates were collected by scraping plate with a plastic spatula. The cell lysates were centrifuged at 10,000 xg for 20 min, and the supernatant was used in the Western Blot analyses or stored at −70° C. Aliquots from the samples were subjected to SDS polyacrylamide gel electrophoresis under reducing conditions. The stacking gels contained 5% acrylamide, and the separating gels were composed of 7.5% acrylamide. The proteins were electrophoretically transferred from the gels onto nitrocellulose membrane. The nitrocellulose blots were probed with the mouse monoclonal antibody (C11-113H) directed against human cad-11 (from ICOS Corporation, Bothell, Wash.) produced as described in Example 10 below. The Amersham ECL™ system was used to detect antibody bound to antigen.

[1] = tested on: cad-11 in the endometrium; assay: Cad-11 immunostaining (HSCORE) of endometrial biopsies after treatment; type: in vivo, human; conditions: for AFTER TREATMENT (HSCORE), cad-11 expression in the endometrium: women with primary habitual abortion and LPD, one line per patient 1-8; for effect of treatment on endometrial cad-11 expression: women with LPD-associated habitual abortion, degree of response variable
Description: The intensity of cad-11 immunostaining in the endometrial biopsies may be determined by the semiquantitative HSCORE technique which is routinely used in oncology for cancer cell counts. The HSCORE is a continuous value (from 0-4, respectively), in which a discriminatory level that designates positives and negatives for the test is determined. Typically, a consensus is made between counts carried out by two observers in a blinded fashion employing a double-headed microscope at low and high magnification.
(§6) The presence of cad-11 was examined in endometrial biopsies obtained from women presenting with primary (no prior live birth) habitual abortion in association with luteal phase deficiency (LPD). This group of women, who account for approximately 20% of the women attending the Recurrent Pregnancy Loss Clinic, B.C. Women's Hospital and Health Centre, University of British Columbia, Vancouver, Canada, are routinely treated with progesterone or clomiphene citrate (a nonsteroidal synthetic compound). Biopsy specimens were obtained from these women before and after treatment. Cad-11 expression/production was correlated with pregnancy outcome upon treatment. Present treatment of LPD consists of either vaginal progesterone suppositories or clomiphene citrate, with the dosage being adjusted until a repeat endometrial biopsy is considered to be “in phase” by morphological assessment.
LPD was diagnosed by traditional methods prior to determining cad-11 by immunostaining. To increase the likelihood of including only those individuals with authentic LPD, the criteria for inclusion in this study was two consecutive biopsies with a 3 days of maturation delay based on the first day of the next menses as determined by morphological assessment.
In 16 such patients, cad-11 immunostaining was examined in biopsies obtained before and after treatment with either progesterone (results shown in Table 1A) or clomiphene citrate (results shown in Table 1B). All 16 had return of normal in-phase morphology on subsequent biopsy. The endometrial biopsy specimens were then re-evaluated for cad-11 using immunohistochemical staining. Comparison of staining pattern and intensity was performed using a monoclonal antibody directed against human cadherin-11 and standard immunohistochemical techniques according to the protocol set out in Example 3. The intensity of cad-11 immunostaining in the endometrial biopsies was determined by the semiquantitative HSCORE technique as described above.
For Detection of Cad-11 in Endometrial Biopsy Specimens • Prepare diluent fresh 1% bovine serum albumin (BSA; Sigma Chem Co.)/1% Automation Buffer (AB; ESBE Lab.) (wt/vol).
For paraffin embedded endometrial biopsy specimen sections (5 μm): • 1. Wash tissue specimen thoroughly in phosphate-buffered saline (PBS). • 2. […]

[2] = tested on: women presenting with primary habitual abortion and diagnosed with luteal phase deficiency; assay: Pregnancy outcome upon treatment; type: in vivo, human; conditions: one line per patient 1-8
Excerpt: as §6
However, different intensities of cad-11 immunostaining in the epithelial and stromal component of the endometrium observed in this cohort of women (HSCORES=0-4: Tables 1A and 1B). […] Conversely, a negative HSCORE (0-1) following treatment correlated with a subsequent pregnancy loss (spontaneous abortion).

[3] = Example 4E, P4 1 μM plus E2 0.5-100 nM, 96 h
[4] = Example 4E, with P4 1 μM, 96 h, versus 30 nM E2
[5] = Example 4F, cultured endometrial stromal cells
[6] = Treatment: Progesterone Suppositories

| Structure (SMILES) | stromal cad-11 mRNA levels over time (cad-11 mRNA) | cad-11 protein expression levels over time (cad-11 protein) | cad-11 mRNA levels (cad-11 mRNA) | regulation of cad-11 mRNA expression by steroid alone (cad-11 mRNA; [5]) | regulation of cad-11 protein expression by steroid alone (cad-11 protein; [5]) | effect of treatment on endometrial cad-11 expression [1] | also measured |
| --- | --- | --- | --- | --- | --- | --- | --- |
| C[C@]12CCC(=O)C[C@@H]1CC[C@@H]1[C@@H]2CC[C@]2(C)[C@@H](O)CC[C@@H]12 [DHT, dihydrotestosterone] | did not significantly increase cad-11 mRNA levels | No significant increase in cad-11 expression levels | – | – | – | – | – |
| C[C@]12CC[C@@H]3c4ccc(O)cc4CC[C@H]3[C@@H]1CC[C@@H]2O [E2, 17β-estradiol] | did not significantly increase cad-11 mRNA levels | No significant increase in cad-11 expression levels | little effect on cad-11 mRNA levels | – | – | – | potentiation of P4-mediated increase in stromal cad-11 mRNA by increasing doses of E2 (cad-11 mRNA; [3]): progressively enhanced the effects of P4; E2 concentration at which maximum cad-11 mRNA expression level was observed (cad-11 mRNA; Example 4E, with P4 1 μM, 96 h): 30 nM; enhancement of stromal cad-11 mRNA when E2 was increased to 100 nM (cad-11 mRNA; [4]): no further enhancement; potentiation of the progestin-mediated increase in cad-11 mRNA (cad-11 mRNA; [5]): potentiate this effect; potentiation of P4-mediated increase in stromal cad-11 protein by increasing doses of E2 (cad-11 protein; [3]): progressively enhanced the effects of P4; E2 concentration at which maximum cad-11 protein expression level was observed (cad-11 protein; Example 4E, with P4 1 μM, 96 h): 30 nM; enhancement of stromal cad-11 protein when E2 was increased to 100 nM (cad-11 protein; [4]): no further enhancement; potentiation of the progestin-mediated increase in cad-11 protein (cad-11 protein; [5]): potentiate this effect |
| CC(=O)[C@H]1CC[C@H]2[C@@H]3CC=C4C[C@@H](O)CC[C@]4(C)[C@H]3CC[C@]12C [Pregnenolone] | – | – | – | increased cad-11 expression | increased cad-11 expression | – | – |
| CCN(CC)CCOc1ccc(C(=C(Cl)c2ccccc2)c2ccccc2)cc1 [clomiphene citrate] | – | – | – | – | – | capable of increasing endometrial cad-11 expression | AFTER TREATMENT (HSCORE), cad-11 expression in the endometrium ([1]; Treatment: Clomiphene Citrate): 4 (positive) HSCORE (2×) and 2 (equivocal) HSCORE and 1 (negative) HSCORE (2×) and 0 (negative) HSCORE and 3 (positive) HSCORE (2×); PREGNANCY OUTCOME ([2]; Treatment: Clomiphene Citrate): successful; also recorded: spontaneous |
| CC(=O)O[C@]1(C(C)=O)CC[C@H]2[C@@H]3C[C@H](C)C4=CC(=O)CC[C@]4(C)[C@H]3CC[C@@]21C [medroxyprogesterone acetate] | – | – | – | increased cad-11 expression | increased cad-11 expression | – | – |
| CC(=O)[C@H]1CC[C@H]2[C@@H]3CCC4=CC(=O)CC[C@]4(C)[C@H]3CC[C@]12C [progesterone] | significant increase in the stromal cad-11 mRNA levels after 24 h | increase in cad-11 expression after 24 h | increased cad-11 mRNA levels in a dose-dependent manner | increased cad-11 expression | increased cad-11 expression | capable of increasing endometrial cad-11 expression | AFTER TREATMENT (HSCORE), cad-11 expression in the endometrium [1, 6]: 3 (positive) HSCORE (2×) and 4 (positive) HSCORE (2×) and 2 (equivocal) HSCORE and 1 (negative) HSCORE (2×) and 0 (negative) HSCORE; PREGNANCY OUTCOME [2, 6]: successful; also recorded: spontaneous; stromal cad-11 protein (cad-11 protein; Example 4B, 24 h culture, P4 0.1-1 μM): induced an increase in stromal cad-11 protein |
